# Square brackets hold non-standard residues; d marks the D form. Peptide text beside a SMILES is read from it. * marks the point of attachment. dPhe(4-NHCONH2) = NC(=O)Nc1ccc(C[C@@H](N)C(=O)O)cc1; Dihydroorotyl(S) = O=C1C[C@@H](C(=O)*)NC(=O)N1; dPhe(4-Cl) = N[C@H](Cc1ccc(Cl)cc1)C(=O)O; Phe(4-NH2) = Nc1ccc(C[C@H](N)C(=O)O)cc1; d2Nal = N[C@H](Cc1ccc2ccccc2c1)C(=O)O; Lys(iPr) = CC(C)NCCCC[C@H](N)C(=O)O; d3Pal = N[C@H](Cc1cccnc1)C(=O)O
# Experiments:
# [1] = system: Myc-CAP (STING^lo) tumors; experiment: Myc-CAP syngeneic tumor growth; type: in vivo, mouse; settings: immunocompetent syngeneic mice
# Protocol: FIGS. 25A and 25B. […] (25A-25B) Myc-CAP (STING^lo) tumor-bearing syngeneic mice were treated with the indicated drug(s) until untreated tumors reached approx. 2500 mm^3. Tumor volume curves for duration of treatment are shown.
# FIGS. 26A-26D. […] Immunodeficient athymic nude (26A) and NOD-SCID (26B) mice were engrafted with Myc-CAP (STING^lo) tumors and treated with the indicated drug(s) until untreated tumors reached approx. 2000 mm^3. Tumor volume curves for duration of treatment are shown. For 26A-26B, n=3-4 mice per group. (26C-26D) Single-cell suspensions were generated from harvested tumors and analyzed by flow cytometry for the indicated immune cell populations and their activation states. Data are represented relative to CD45+ immune cells. For 26C-26D, n=3-5 animals per treatment group from 2 independent experiments. Significance/p-values were calculated by […].
# FIGS. 29A-29M. […] Myc-CAP cancer cells were treated with the indicated drugs singly or in combination for 36 hours. (29A) Cells were stained with anti-mouse specific p-γH2AX antibody and a fluorescently labeled secondary antibody for determination of DNA DSBs, which were quantified by confocal microscopy. (29B) Protein extracts from cells in 29A were analyzed for the indicated pharmacodynamic biomarkers by western blotting; (29C) Annexin V-PI staining was done to assess frequency of live cells (Annexin V^− PI^−) following drug treatment. (29D) Ultracentrifugation was utilized to purify microvesicles (MVs) from supernatants in treatment groups in (29A) and associated DNA DSBs was quantified by Nanodrop®. Independent experiments n=2. (29E) Ultracentrifugation was utilized to purify MVs from supernatants in indicated treatment groups in FIG. 17A, and associated DNA DSBs were quantified by Nanodrop®; n=2 independent experiments. (29F) Syngeneic mice were engrafted with Myc-CAP (STING^lo) cells, and tumors were harvested when the tumor volume reached 400 mm^3. Single cell suspensions of the tumors were treated with the indicated drug(s), in the presence or absence of GW4869 (MV biogenesis inhibitor). (29G) Bone marrow derived macrophage (BMDMs) were co-cultured for 30 hours with supernatants (−/+ exogenous 50 units of DNase I pre-treatment for 30 minutes) from Myc-CAP cells that were treated with the indicated drug(s) for 36 hours. (29H) cGAMP (10 μg/mL) was pre-incubated with 10 units of DNAse I or mock control for 30 minutes and then added to BMDMs for 30 hours. (29I-29L) STING^+/+/STING^−/− BMDMs were co-cultured for 36 hours with supernatants from Myc-CAP and B6-Myc cancer cells that were treated with the indicated drug(s) for 36 hours. Supernatants were collected from 29F-29L at the end of treatment and analyzed for IFNβ1 by ELISA. (29M) Myc-CAP (STING^lo) tumor-bearing mice were treated with the indicated drug(s) until tumors first reached approx. 2500 mm^3. For the degerelix/rucaparib/buparlisib combination, additional cohorts of mice underwent concomitant treatment with STING antagonist H-151 or GW4869. Tumor volume was recorded daily for duration of experiment. For in vitro experiments, n=2 independent experiments and for in vivo experiments n=3-4 animals /group.
# [2] = system: Myc-CAP (STING^lo) tumors; experiment: Immune profiling of Myc-CAP tumors (flow cytometry, qRT-PCR); type: in vivo, mouse; settings: degarelix for 10 days
# Protocol: FIGS. 24A-24G. […] Myc-CAP (STING^lo) tumor-bearing syngeneic mice were treated with degarelix (chemical castration) for 10 days. At the end of treatment, tumors were harvested and analyzed by flow cytometry for infiltration of CD45+ immune cells (24A), macrophages (24B) and CD4/CD8 T cells (24C-24D). Mean fluorescence intensity (MFI) is depicted for PD-Ll expression on CD45−/CD45+ cells (24E-24F) and TAMs (24G) within the TME; n=3-5 animals/group; Significance/p-values were calculated by Un-paired t-test.
# FIGS. 26A-26D. […] (26C-26D) Single-cell suspensions were generated from harvested tumors and analyzed by flow cytometry for the indicated immune cell populations and their activation states. […] Significance/p-values were calculated by […].
# FIGS. 27A-27D. […] Single-cell suspensions were generated from harvested tumors and analyzed by flow cytometry for CD4 infiltration (27A) and activation (27C). (27B, 27D) Single-cell suspensions were generated from harvested tumors and analyzed by flow cytometry for the indicated immune cell populations and their activation states. […] Significance/p-values were calculated by one-way ANOVA.
# FIGS. 28A and 28B. […] (28B) Single-cell suspensions were generated from harvested tumors and analyzed by flow cytometry for macrophage (F4/80+) Arginase I expression. n=3 animals/group; Significance/p-values were calculated by one-way ANOVA. […]
smiles,measurement,setting,value
CC(=O)N[C@H](Cc1ccc2ccccc2c1)C(=O)N[C@H](Cc1ccc(Cl)cc1)C(=O)N[C@H](Cc1cccnc1)C(=O)N[C@@H](CO)C(=O)N[C@@H](Cc1ccc(NC(=O)[C@@H]2CC(=O)NC(=O)N2)cc1)C(=O)N[C@H](Cc1ccc(NC(N)=O)cc1)C(=O)N[C@@H](CC(C)C)C(=O)N[C@@H](CCCCNC(C)C)C(=O)N1CCC[C@H]1C(=O)N[C@H](C)C(N)=O [degarelix] (Ac-[d2Nal][dPhe(4-Cl)][d3Pal]S[Phe(4-NH2)](Dihydroorotyl(S))[dPhe(4-NHCONH2)]L[Lys(iPr)]P[dA]-NH2),tumor growth response,[1],not observed
same,immune infiltration and PD-L1 expression within the TME after chemical castration,[2],increases macrophage and CD4+ T cell infiltration and PD-L1 expression
